According to ChEMBL document CHEMBL4476883, “Hydroxy formamide derivatives and their use” (2017):

Columns and labels:
[1] = molecular target: T1, Bone morphogenetic protein 1 (Homo sapiens, UniProt P13497); test: Inhibition of C-terminal FLAG-6x-His epitope tagged and N-terminal human RAGE signal sequence tagged human BMP1 (23 to 721 amino acids) expressed in CHO-E1A cells pre-incubated for 10 mins before promyostatin peptide substrate addition and measured after 60 mins using 0.5 nM BMP1 by FRET based assay; assay type: cell-based
T1 sequence (P13497 whole entry): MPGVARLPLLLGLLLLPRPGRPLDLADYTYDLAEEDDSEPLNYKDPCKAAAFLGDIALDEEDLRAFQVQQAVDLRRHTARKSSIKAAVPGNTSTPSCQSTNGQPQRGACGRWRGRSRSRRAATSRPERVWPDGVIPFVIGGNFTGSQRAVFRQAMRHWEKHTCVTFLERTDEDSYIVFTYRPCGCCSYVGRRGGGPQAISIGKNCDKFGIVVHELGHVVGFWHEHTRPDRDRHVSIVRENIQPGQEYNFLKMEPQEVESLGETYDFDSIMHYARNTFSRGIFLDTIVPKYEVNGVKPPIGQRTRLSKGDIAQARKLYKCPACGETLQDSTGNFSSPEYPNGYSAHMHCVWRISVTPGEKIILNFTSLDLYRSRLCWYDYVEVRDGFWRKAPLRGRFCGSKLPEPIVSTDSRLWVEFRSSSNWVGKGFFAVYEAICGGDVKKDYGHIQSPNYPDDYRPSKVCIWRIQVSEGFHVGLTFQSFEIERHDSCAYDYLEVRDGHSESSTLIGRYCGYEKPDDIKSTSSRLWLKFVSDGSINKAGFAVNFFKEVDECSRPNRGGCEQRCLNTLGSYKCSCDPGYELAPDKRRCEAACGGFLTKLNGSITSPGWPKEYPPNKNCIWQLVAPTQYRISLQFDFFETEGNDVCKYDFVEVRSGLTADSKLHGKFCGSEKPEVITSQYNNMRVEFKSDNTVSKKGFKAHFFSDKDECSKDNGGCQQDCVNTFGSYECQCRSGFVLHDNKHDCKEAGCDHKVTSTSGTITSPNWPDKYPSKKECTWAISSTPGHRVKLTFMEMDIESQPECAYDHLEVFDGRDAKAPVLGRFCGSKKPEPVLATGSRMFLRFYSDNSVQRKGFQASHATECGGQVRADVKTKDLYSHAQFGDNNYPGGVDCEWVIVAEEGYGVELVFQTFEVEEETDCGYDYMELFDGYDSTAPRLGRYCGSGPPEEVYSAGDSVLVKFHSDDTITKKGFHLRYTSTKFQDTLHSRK

Tolloid-like protein 1 = Tolloid-like protein 1 (Homo sapiens, UniProt O43897, I156V/N221S/V284A); test: Inhibition of recombinant human TLL1 I156V/N221S/V284A mutant expressed in CHOE1A cells pre-incubated for 10 mins before promyostatin peptide substrate addition and measured after 60 mins by FRET based assay; assay type: cell-based
Tolloid-like protein 1, sequence (O43897 148-1013 I156V/N221S/V284A limits assumed): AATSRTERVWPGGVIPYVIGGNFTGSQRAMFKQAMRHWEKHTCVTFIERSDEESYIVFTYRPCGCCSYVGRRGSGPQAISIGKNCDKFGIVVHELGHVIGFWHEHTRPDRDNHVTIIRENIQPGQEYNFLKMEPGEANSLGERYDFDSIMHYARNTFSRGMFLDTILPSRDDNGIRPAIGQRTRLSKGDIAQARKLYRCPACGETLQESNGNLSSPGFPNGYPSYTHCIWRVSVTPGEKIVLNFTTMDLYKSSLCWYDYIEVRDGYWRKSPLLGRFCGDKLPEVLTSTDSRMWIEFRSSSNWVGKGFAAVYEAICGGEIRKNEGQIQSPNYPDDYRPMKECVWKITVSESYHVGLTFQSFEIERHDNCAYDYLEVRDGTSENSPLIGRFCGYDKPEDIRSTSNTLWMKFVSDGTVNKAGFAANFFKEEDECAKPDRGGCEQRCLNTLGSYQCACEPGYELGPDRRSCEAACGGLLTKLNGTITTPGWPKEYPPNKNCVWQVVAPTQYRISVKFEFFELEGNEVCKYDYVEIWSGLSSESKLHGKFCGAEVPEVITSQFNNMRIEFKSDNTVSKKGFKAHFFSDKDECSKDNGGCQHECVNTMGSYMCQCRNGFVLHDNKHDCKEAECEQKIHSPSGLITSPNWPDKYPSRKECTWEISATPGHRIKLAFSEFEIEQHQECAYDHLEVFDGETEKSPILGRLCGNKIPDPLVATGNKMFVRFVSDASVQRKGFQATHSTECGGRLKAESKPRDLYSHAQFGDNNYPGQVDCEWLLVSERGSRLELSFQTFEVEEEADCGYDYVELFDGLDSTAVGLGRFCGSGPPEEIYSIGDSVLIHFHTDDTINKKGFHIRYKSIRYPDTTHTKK

Tolloid-like protein 2 = molecular target: T2, Tolloid-like protein 2 (Homo sapiens, UniProt Q9Y6L7); test: Inhibition of C-terminal Avi-6x-His epitope tagged and N-terminal human RAGE signal sequence tagged recombinant human TLL2 (26 to 1015 amino acids) expressed in CHOE1A cells incubated for 60 mins with promyostatin peptide substrate by FRET based assay; assay type: cell-based
T2 sequence (Q9Y6L7 whole entry): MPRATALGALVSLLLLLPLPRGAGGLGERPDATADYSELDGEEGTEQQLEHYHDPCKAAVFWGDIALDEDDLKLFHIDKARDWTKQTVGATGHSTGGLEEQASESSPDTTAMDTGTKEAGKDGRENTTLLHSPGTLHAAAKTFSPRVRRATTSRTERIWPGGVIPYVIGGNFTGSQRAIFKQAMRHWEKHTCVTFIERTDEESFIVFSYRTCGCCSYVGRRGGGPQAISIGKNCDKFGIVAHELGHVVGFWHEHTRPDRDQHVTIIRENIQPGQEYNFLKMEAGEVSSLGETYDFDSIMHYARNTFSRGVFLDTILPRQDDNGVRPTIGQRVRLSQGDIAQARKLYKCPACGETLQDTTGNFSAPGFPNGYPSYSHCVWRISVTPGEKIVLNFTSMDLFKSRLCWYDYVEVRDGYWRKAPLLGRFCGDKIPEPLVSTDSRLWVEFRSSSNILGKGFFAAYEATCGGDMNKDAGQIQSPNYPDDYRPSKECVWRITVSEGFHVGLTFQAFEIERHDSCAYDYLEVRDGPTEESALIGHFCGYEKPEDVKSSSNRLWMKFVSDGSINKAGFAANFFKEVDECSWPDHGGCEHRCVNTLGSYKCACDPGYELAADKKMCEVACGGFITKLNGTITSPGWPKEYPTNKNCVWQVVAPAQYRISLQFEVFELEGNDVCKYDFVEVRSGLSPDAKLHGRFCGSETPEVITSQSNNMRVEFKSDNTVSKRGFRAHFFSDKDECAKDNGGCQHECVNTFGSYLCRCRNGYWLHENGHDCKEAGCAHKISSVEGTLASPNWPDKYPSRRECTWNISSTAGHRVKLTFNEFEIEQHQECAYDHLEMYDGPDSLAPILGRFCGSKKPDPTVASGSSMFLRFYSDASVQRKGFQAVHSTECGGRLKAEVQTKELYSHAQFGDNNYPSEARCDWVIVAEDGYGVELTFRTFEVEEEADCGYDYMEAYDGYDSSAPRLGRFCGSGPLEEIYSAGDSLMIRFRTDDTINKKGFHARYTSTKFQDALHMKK

[2] = Reduction in PICP levels in human cardiac fibroblasts incubated for 24 to 48 hrs by ELISA; assay type: functional
[3] = molecular target: T1, Bone morphogenetic protein 1; test: Inhibition of C-terminal FLAG-6x-His epitope tagged and N-terminal human RAGE signal sequence tagged human BMP1 (23 to 721 amino acids) expressed in CHO-E1A cells pre-incubated for 10 mins before promyostatin peptide substrate addition and measured after 30 mins using 50 nM BMP1 by FRET based assay; assay type: cell-based

IC50 [1] [nM] | IC50 (Tolloid-like protein 1) [nM] | IC50 (Tolloid-like protein 2) [nM] | IC50 [3] [nM] | Structure (SMILES) | IC50 [2] [nM]
< 126 | < 398 | < 631 | < 251 | O=CN(O)C[C@@H](CC1CCCC1)C(=O)NCNC(=O)c1cccc(-c2cccc(C(F)(F)F)c2)c1 | < 20000
< 126 | < 398 | < 631 | < 251 | CCCCC[C@H](CN(O)C=O)C(=O)NCNC(=O)c1cccc(-c2cccc(C(=O)O)c2)c1 | < 20000
< 126 | < 398 | < 631 | < 251 | CCCCC[C@H](CN(O)C=O)C(=O)NCNC(=O)c1cccc(-c2cccc(OC)c2F)c1 | < 20000
< 126 | < 398 | < 631 | < 251 | CCCCC[C@H](CN(O)C=O)C(=O)NCNC(=O)c1cccc(-c2ccnn2CC)c1 | < 20000
< 126 | – | – | < 251 | CCCCC[C@@H](C(=O)NCNC(=O)c1cc(C(=O)O)cc(-c2cc(OCC)cc(C(=O)O)c2)c1)[C@@H](CC)N(O)C=O | < 20000
< 126 | < 398 | < 631 | < 251 | CCCCC[C@H](CN(O)C=O)C(=O)NCNC(=O)c1cccc(-c2cc(OC)nnc2OC)c1 | < 20000
< 126 | < 398 | < 631 | < 251 | CCCCC[C@H](CN(O)C=O)C(=O)NCNC(=O)c1cccc(-c2ccc(F)cc2)c1 | < 20000
< 126 | < 398 | < 631 | < 251 | CCOc1cccc(-c2cccc(C(=O)NCNC(=O)[C@H](CC3CCCC3)CN(O)C=O)c2)c1 | < 20000
< 126 | < 398 | < 631 | < 251 | CCCCC[C@H](CN(O)C=O)C(=O)NCNC(=O)c1cccc(-c2cccc(OC(C)C)c2)c1 | < 20000
< 126 | < 398 | < 631 | < 251 | CCCCC[C@H](CN(O)C=O)C(=O)NCNC(=O)c1cccc(-c2cccc(C(C)C)c2)c1 | < 20000
< 126 | < 398 | < 631 | < 251 | CCc1cccc(-c2cccc(C(=O)NCNC(=O)[C@H](CC3CCCC3)CN(O)C=O)c2)c1 | < 20000
< 126 | < 398 | < 631 | < 251 | CCCCC[C@H](CN(O)C=O)C(=O)NCNC(=O)c1cccc(-c2cccc(O)c2)c1 | < 20000
< 126 | < 398 | < 631 | < 251 | CCCCC[C@H](CN(O)C=O)C(=O)NCNC(=O)c1cccc(-c2cc(OC)ccc2OC)c1 | < 20000
< 126 | < 398 | < 631 | < 251 | CCCCC[C@H](CN(O)C=O)C(=O)NCNC(=O)c1cccc(-c2cccc(F)c2)c1 | < 20000
< 126 | < 398 | < 631 | < 251 | CCCCC[C@H](CN(O)C=O)C(=O)NCNC(=O)c1cccc(-c2cccc(C(N)=O)c2)c1 | < 20000
< 126 | < 398 | < 631 | < 251 | CCCCC[C@H](CN(O)C=O)C(=O)NCNC(=O)c1cccc(-c2cccc(NS(C)(=O)=O)c2)c1 | < 20000
< 126 | < 398 | < 631 | < 251 | COc1cncc(-c2cccc(C(=O)NCNC(=O)[C@H](CC3CCCC3)CN(O)C=O)c2)c1 | < 20000
< 126 | < 398 | < 631 | < 251 | CCCCC[C@H](CN(O)C=O)C(=O)NCNC(=O)c1cccc(-c2ccc(OC)cc2)c1 | < 20000
< 126 | < 398 | < 631 | < 251 | CCCCC[C@H](CN(O)C=O)C(=O)NCNC(=O)c1cccc(-c2cccc(S(N)(=O)=O)c2)c1 | < 20000
< 126 | < 398 | < 631 | < 251 | CCCCC[C@H](CN(O)C=O)C(=O)NCNC(=O)c1cccc(-c2cncc(OC)c2)c1 | < 20000
< 126 | < 398 | < 631 | < 251 | CCCCC[C@H](CN(O)C=O)C(=O)NCNC(=O)c1cccc(-c2ccc(N(C)C)cc2)c1 | < 20000
< 126 | < 398 | < 631 | < 251 | CCCCC[C@H](CN(O)C=O)C(=O)NCNC(=O)c1cccc(-c2cccc(N(C)C)c2)c1 | < 20000
< 126 | < 398 | < 631 | < 251 | CCCCC[C@H](CN(O)C=O)C(=O)NCNC(=O)c1cccc(-c2ccc(F)c(OC)c2)c1 | < 20000
< 126 | < 398 | < 631 | < 251 | COc1cc(-c2cccc(C(=O)NCNC(=O)[C@H](CCc3ccccc3)CN(O)C=O)c2)c(OC)nn1 | < 20000
< 126 | < 398 | < 631 | < 251 | CCCCC[C@H](CN(O)C=O)C(=O)NCNC(=O)c1cccc(-c2cccc(OCC(F)(F)F)c2)c1 | < 20000
< 126 | < 398 | < 631 | < 251 | O=CN(O)C[C@@H](CC1CCCC1)C(=O)NCNC(=O)c1cccc(-c2cccc(OC(F)(F)F)c2)c1 | < 20000
< 126 | < 398 | < 631 | < 251 | O=CN(O)C[C@@H](CC1CCCC1)C(=O)NCNC(=O)c1cccc(-c2cccc(O)c2)c1 | < 20000
< 126 | < 398 | < 631 | < 251 | COc1cc(OC)cc(-c2cccc(C(=O)NCNC(=O)[C@H](CC3CCCC3)CN(O)C=O)c2)c1 | < 20000
< 126 | < 398 | < 631 | < 251 | CCCCC[C@H](CN(O)C=O)C(=O)NCNC(=O)c1cccc(-c2cccc(S(C)(=O)=O)c2)c1 | < 20000
< 126 | < 398 | < 631 | < 251 | CCCCC[C@H](CN(O)C=O)C(=O)NCNC(=O)c1cccc(-c2ccccc2F)c1 | < 20000
